Measurements reported in patent publication US10413535B2, “Pharmaceutical compositions comprising an integrin ALPHA4 antagonist for use in treating ocular inflammatory conditions” (AXEROVISION, INC., priority 2015, dated 2019).
Where two headings read alike, the source gives them in different places.

Legend:
[1] = PK study in rabbits, ocular tissue concentrations (LC-MS/MS); assay type: in vivo, New Zealand White rabbits; details: for Tmax: topical or ocular, both studies; for concentration at 6 h: persisted up to 6 hours
Description: The potassium salt of GW559090, referred to herein as GW559090A, was given to male New Zealand White rabbits by topical ocular administration as a single bilateral drop (Study #1: n=2 rabbits/4 eyes per time point; Study #2: n=3 rabbits/6 eyes per time point). At designated times (0.5, 1, 3, 6 hours post administration), ocular tissues were collected and processed for analysis. Concentrations of GW559090 were measured in cornea and bulbar conjunctiva by liquid chromatography with tandem mass spectrometry (LC-MS/MS).

[2] = Toxicokinetics in 13-week topical ocular rabbit study; details: New Zealand White, in vivo, topical or ocular
Description: GW559090A was given to New Zealand White Rabbits by topical ocular administration for 13 weeks. Animals were dosed six or twelve times per day, with one hour between doses. Treatment groups were: (1) vehicle (12 times a day), (2) 30 mg/mL/occasion given six times a day, (3) 50 mg/mL/occasion given six times a day, or (4) 50 mg/mL/occasion, given 12 times a day.
GW559090A was formulated as a stock solution in 25 mM phosphate buffer with 0.5% sodium chloride to provide a 50 mg/mL stock solution, which was used for administration to Groups 3 or 4, or further diluted with 25 mM phosphate buffer with 0.75% sodium chloride to provide a 30 mg/mL solution for administration to Group 2. Control animals were treated with the vehicle for 50 mg/mL solution (25 mM phosphate buffer with 0.5% sodium chloride).
During the 13 week treatment period rabbits received daily topical ocular doses of GW559090A or vehicle at a constant dose volume of 0.06 mL (given 6 or 12 times a day, with one hour between doses). The test article formulation or vehicle was carefully dropped into the partially everted lower eyelid of the right eye from a suitable distance, to prevent contact of the positive displacement pipette with the eye. The lower and upper lids were then gently held together for approximately five seconds, to prevent loss of dose and aid even distribution across the external ocular surface. The un-dosed eye was not manipulated at any time and served as a within animal untreated control site.

[3] = male, New Zealand White, rabbit, conjunctiva, topical, 40 μL (50 mg/mL) GW559090A, read-out: Conjunctival tissue concentration
[4] = male, New Zealand White, rabbit, cornea, topical, 40 μL (50 mg/mL) GW559090A, read-out: Corneal tissue concentration
[5] = single topical 40 μL (50 mg/mL) GW559090A
[6] = female, 30 mg/mL/occasion, female rabbits, 30 mg/mL, 6 daily doses, Day 1, after the first daily dose
[7] = female, 30 mg/mL/occasion, female rabbits, 30 mg/mL, 6 daily doses, Week 4, after the first daily dose
[8] = female, 30 mg/mL/occasion, female rabbits, 30 mg/mL, 6 daily doses, Week 13, after the first daily dose
[9] = female, 50 mg/mL/occasion, female rabbits, 50 mg/mL, 6 daily doses, Day 1, after the first daily dose
[10] = female, 50 mg/mL/occasion, female rabbits, 50 mg/mL, 6 daily doses, Week 4, after the first daily dose
[11] = female, 50 mg/mL/occasion, female rabbits, 50 mg/mL, 6 daily doses, Week 13, after the first daily dose
[12] = female, 50 mg/mL/occasion, female rabbits, 50 mg/mL, 12 daily doses, Day 1, after the first daily dose
[13] = female, 50 mg/mL/occasion, female rabbits, 50 mg/mL, 12 daily doses, Week 4, after the first daily dose
[14] = female, 50 mg/mL/occasion, female rabbits, 50 mg/mL, 12 daily doses, Week 14, after the first daily dose
[15] = male, 30 mg/mL/occasion, male rabbits, 30 mg/mL, 6 daily doses, Day 1, after the first daily dose
[16] = male, 30 mg/mL/occasion, male rabbits, 30 mg/mL, 6 daily doses, Week 4, after the first daily dose
[17] = male, 30 mg/mL/occasion, male rabbits, 30 mg/mL, 6 daily doses, Week 13, after the first daily dose
[18] = male, 50 mg/mL/occasion, male rabbits, 50 mg/mL, 6 daily doses, Day 1, after the first daily dose
[19] = male, 50 mg/mL/occasion, male rabbits, 50 mg/mL, 6 daily doses, Week 4, after the first daily dose
[20] = male, 50 mg/mL/occasion, male rabbits, 50 mg/mL, 6 daily doses, Week 13, after the first daily dose
[21] = male, 50 mg/mL/occasion, male rabbits, 50 mg/mL, 12 daily doses, Day 1, after the first daily dose
[22] = male, 50 mg/mL/occasion, male rabbits, 50 mg/mL, 12 daily doses, Week 4, after the first daily dose
[23] = male, 50 mg/mL/occasion, male rabbits, 50 mg/mL, 12 daily doses, Week 14, after the first daily dose

Cc1ccccc1OCC(=O)N[C@@H](CC(C)C)C(=O)N[C@@H](Cc1ccc(OC(=O)N2CCC(C(N)=O)CC2)cc1)C(=O)O [GW559090, (2S)-3-[4-({[4-(Aminocarbonyl)-1-piperidinyl]carbonyl}oxy)phenyl]-2-[((2S)-4-methyl-2-{[2-(2-methylphenoxy)acetyl]amino}pentanoyl)amino]propanoic acid]
Mean cornea concentrations versus mean conjunctiva concentrations ([1]; 3 and 6 hour postdose): higher
Tmax ([1]; male, New Zealand White, rabbit, bulbar conjunctiva, single topical 40 μL (50 mg/mL) GW559090A, read-out: Tmax in bulbar conjunctiva): 60 min
concentration at 30 min [1, 3]: > 3000 ng/mL
concentration at 6 h [1, 3]: ~358 ng/mL
Tmax ([1]; male, New Zealand White, rabbit, cornea, single topical 40 μL (50 mg/mL) GW559090A, read-out: Tmax in cornea): 30 min
concentration at 30 min [1, 4]: > 3000 ng/mL
concentration at 3 h ([1]; male, New Zealand White, rabbit, cornea, topical, at 3 hours, 40 μL (50 mg/mL) GW559090A, read-out: Corneal tissue concentration): > 1000 ng/mL
concentration at 6 h [1, 4]: ~358 ng/mL
Mean conjunctiva concentrations quantifiable through [1, 5]: 6 h
Mean cornea concentrations quantifiable through [1, 5]: 6 h
Cmax [2, 6]: 16 ng/mL
Tmax [2, 6]: 4.98 min
AUC(0-t) ([2]; female, 30 mg/mL/occasion, female rabbits, 30 mg/mL, 6 daily doses, Day 1, read-out: AUC0-1): 4.19 ng·h/mL
AUC(0-t) ([2]; female, 30 mg/mL/occasion, female rabbits, 30 mg/mL, 6 daily doses, Day 1, read-out: AUC0-24): 25.1 ng·h/mL
Cmax [2, 7]: 32.4 ng/mL
Tmax [2, 7]: 4.98 min
AUC(0-t) ([2]; female, 30 mg/mL/occasion, female rabbits, 30 mg/mL, 6 daily doses, Week 4, read-out: AUC0-1): 10.6 ng·h/mL
AUC(0-t) ([2]; female, 30 mg/mL/occasion, female rabbits, 30 mg/mL, 6 daily doses, Week 4, read-out: AUC0-24): 63.6 ng·h/mL
Cmax [2, 8]: 23.5 ng/mL
Tmax [2, 8]: 15 min
AUC(0-t) ([2]; female, 30 mg/mL/occasion, female rabbits, 30 mg/mL, 6 daily doses, Week 13, read-out: AUC0-1): 9.83 ng·h/mL
AUC(0-t) ([2]; female, 30 mg/mL/occasion, female rabbits, 30 mg/mL, 6 daily doses, Week 13, read-out: AUC0-24): 59 ng·h/mL
Cmax [2, 9]: 67.8 ng/mL
Tmax [2, 9]: 4.98 min
AUC(0-t) ([2]; female, 50 mg/mL/occasion, female rabbits, 50 mg/mL, 6 daily doses, Day 1, read-out: AUC0-1): 11 ng·h/mL
AUC(0-t) ([2]; female, 50 mg/mL/occasion, female rabbits, 50 mg/mL, 6 daily doses, Day 1, read-out: AUC0-24): 66 ng·h/mL
Cmax [2, 10]: 44.4 ng/mL
Tmax [2, 10]: 4.98 min
AUC(0-t) ([2]; female, 50 mg/mL/occasion, female rabbits, 50 mg/mL, 6 daily doses, Week 4, read-out: AUC0-1): 12.6 ng·h/mL
AUC(0-t) ([2]; female, 50 mg/mL/occasion, female rabbits, 50 mg/mL, 6 daily doses, Week 4, read-out: AUC0-24): 75.6 ng·h/mL
Cmax [2, 11]: 49.7 ng/mL
Tmax [2, 11]: 4.98 min
AUC(0-t) ([2]; female, 50 mg/mL/occasion, female rabbits, 50 mg/mL, 6 daily doses, Week 13, read-out: AUC0-1): 15.7 ng·h/mL
AUC(0-t) ([2]; female, 50 mg/mL/occasion, female rabbits, 50 mg/mL, 6 daily doses, Week 13, read-out: AUC0-24): 94.2 ng·h/mL
Cmax [2, 12]: 30.6 ng/mL
Tmax [2, 12]: 4.98 min
AUC(0-t) ([2]; female, 50 mg/mL/occasion, female rabbits, 50 mg/mL, 12 daily doses, Day 1, read-out: AUC0-1): 7.3 ng·h/mL
AUC(0-t) ([2]; female, 50 mg/mL/occasion, female rabbits, 50 mg/mL, 12 daily doses, Day 1, read-out: AUC0-24): 87.6 ng·h/mL
Cmax [2, 13]: 56.6 ng/mL
Tmax [2, 13]: 4.98 min
AUC(0-t) ([2]; female, 50 mg/mL/occasion, female rabbits, 50 mg/mL, 12 daily doses, Week 4, read-out: AUC0-1): 13.1 ng·h/mL
AUC(0-t) ([2]; female, 50 mg/mL/occasion, female rabbits, 50 mg/mL, 12 daily doses, Week 4, read-out: AUC0-24): 157 ng·h/mL
Cmax [2, 14]: 68 ng/mL
Tmax [2, 14]: 4.98 min
AUC(0-t) ([2]; female, 50 mg/mL/occasion, female rabbits, 50 mg/mL, 12 daily doses, Week 14, read-out: AUC0-1): 35.5 ng·h/mL
AUC(0-t) ([2]; female, 50 mg/mL/occasion, female rabbits, 50 mg/mL, 12 daily doses, Week 14, read-out: AUC0-24): 426 ng·h/mL
Cmax [2, 15]: 30.8 ng/mL
Tmax [2, 15]: 4.98 min
AUC(0-t) ([2]; male, 30 mg/mL/occasion, male rabbits, 30 mg/mL, 6 daily doses, Day 1, read-out: AUC0-1): 7.86 ng·h/mL
AUC(0-t) ([2]; male, 30 mg/mL/occasion, male rabbits, 30 mg/mL, 6 daily doses, Day 1, read-out: AUC0-24): 47.2 ng·h/mL
Cmax [2, 16]: 51.4 ng/mL
Tmax [2, 16]: 4.98 min
AUC(0-t) ([2]; male, 30 mg/mL/occasion, male rabbits, 30 mg/mL, 6 daily doses, Week 4, read-out: AUC0-1): 9.23 ng·h/mL
AUC(0-t) ([2]; male, 30 mg/mL/occasion, male rabbits, 30 mg/mL, 6 daily doses, Week 4, read-out: AUC0-24): 55.4 ng·h/mL
Cmax [2, 17]: 11.8 ng/mL
Tmax [2, 17]: 4.98 min
AUC(0-t) ([2]; male, 30 mg/mL/occasion, male rabbits, 30 mg/mL, 6 daily doses, Week 13, read-out: AUC0-1): 9.1 ng·h/mL
AUC(0-t) ([2]; male, 30 mg/mL/occasion, male rabbits, 30 mg/mL, 6 daily doses, Week 13, read-out: AUC0-24): 54.6 ng·h/mL
Cmax [2, 18]: 105 ng/mL
Tmax [2, 18]: 4.98 min
AUC(0-t) ([2]; male, 50 mg/mL/occasion, male rabbits, 50 mg/mL, 6 daily doses, Day 1, read-out: AUC0-1): 14.4 ng·h/mL
AUC(0-t) ([2]; male, 50 mg/mL/occasion, male rabbits, 50 mg/mL, 6 daily doses, Day 1, read-out: AUC0-24): 86.4 ng·h/mL
Cmax [2, 19]: 80.4 ng/mL
Tmax [2, 19]: 4.98 min
AUC(0-t) ([2]; male, 50 mg/mL/occasion, male rabbits, 50 mg/mL, 6 daily doses, Week 4, read-out: AUC0-1): 17.9 ng·h/mL
AUC(0-t) ([2]; male, 50 mg/mL/occasion, male rabbits, 50 mg/mL, 6 daily doses, Week 4, read-out: AUC0-24): 107 ng·h/mL
Cmax [2, 20]: 32.2 ng/mL
Tmax [2, 20]: 4.98 min
AUC(0-t) ([2]; male, 50 mg/mL/occasion, male rabbits, 50 mg/mL, 6 daily doses, Week 13, read-out: AUC0-1): 17.6 ng·h/mL
AUC(0-t) ([2]; male, 50 mg/mL/occasion, male rabbits, 50 mg/mL, 6 daily doses, Week 13, read-out: AUC0-24): 106 ng·h/mL
Cmax [2, 21]: 66.3 ng/mL
Tmax [2, 21]: 4.98 min
AUC(0-t) ([2]; male, 50 mg/mL/occasion, male rabbits, 50 mg/mL, 12 daily doses, Day 1, read-out: AUC0-1): 12.1 ng·h/mL
AUC(0-t) ([2]; male, 50 mg/mL/occasion, male rabbits, 50 mg/mL, 12 daily doses, Day 1, read-out: AUC0-24): 145 ng·h/mL
Cmax [2, 22]: 41.4 ng/mL
Tmax [2, 22]: 4.98 min
AUC(0-t) ([2]; male, 50 mg/mL/occasion, male rabbits, 50 mg/mL, 12 daily doses, Week 4, read-out: AUC0-1): 11.6 ng·h/mL
AUC(0-t) ([2]; male, 50 mg/mL/occasion, male rabbits, 50 mg/mL, 12 daily doses, Week 4, read-out: AUC0-24): 139 ng·h/mL
Cmax [2, 23]: 38.1 ng/mL
Tmax [2, 23]: 30 min
AUC(0-t) ([2]; male, 50 mg/mL/occasion, male rabbits, 50 mg/mL, 12 daily doses, Week 14, read-out: AUC0-1): 19.6 ng·h/mL
AUC(0-t) ([2]; male, 50 mg/mL/occasion, male rabbits, 50 mg/mL, 12 daily doses, Week 14, read-out: AUC0-24): 235 ng·h/mL
